The subject of one data set is T cells / MDSCs. In words: Promotion of T cell proliferation in a co-culture model of MDSCs and T cells. The settings on record: for activation at 1 µM: Mus musculus, T-cell, 12 h, read-out: T-cell proliferation rate (%), 1 μM, MDSCs treated 12 hours, co-culture of MDSCs and T cells, compared to the control group. The class given is cell-based, mouse. The protocol: Under sterile conditions, the tibia was removed, both ends of the bone were cut, and bone marrow was repeatedly flushed into a 15 mL centrifuge tube using a 1 mL syringe filled with culture medium. Centrifuge at 1600 rpm for 5 min to collect bone marrow cells. […] The spleen cell suspension was then transferred into a 15 mL centrifuge tube. Centrifuge at 1600 rpm for 5 min to collect T cells. Wash twice with 1×PBS. Resuspend the centrifuged T cells in 1 mL PBS and add 1 mL of 10 μM CFDA-SE solution. Incubate at room temperature for 8 min. […] After drug administration, collect MDSC cells into centrifuge tubes. Centrifuge at 1600 rpm for 5 min, remove supernatant, resuspend in 1 mL fresh medium, and plate. Add 1 mL stimulated activated T cells (1:1 ratio) for 48 h co-culture. After incubation, collect cells into centrifuge tubes, wash twice with PBS, and incubate with Fc antibody at room temperature in the dark for 10 min. Add CD3-labeled flow cytometry antibody and incubate at 4° C. in the dark for 30 min. After incubation, wash cells with PBS, resuspend in 300 μL PBS, and analyze by flow cytometry.

Data set [1] can be described thus: Water solubility testing of compounds (HPLC). The settings on record: deionized water, 37 °C.
Data set [2] in a line: Conversion (release) of prodrug salts to parent compound in HEPES buffer pH 7.4. Type of data set: in vitro ADME. The settings on record: hepes buffer, pH 7.4, HEPES pH 7.4, 37 °C, read-out: Release rate (conversion to Compound 1). How it is done: (§1) Pharmaceutically acceptable salts of guaiane-type sesquiterpene lactone derivatives were selected and evaluated for their conversion rates to Compound 1 and Compound 83 in plasma and HEPES buffer, with results shown in Tables 2-1, 2-2, 3-1, and 3-2.
Experimental Method: Preparation of HEPES 7.4 Solution: Dissolve 1.6 g NaCl, 0.074 g KCl, 0.027 g Na2HPO4, 0.2 g glucose, and 1 g 4-(2-Hydroxyethyl)piperazine-1-ethanesulfonic acid (HEPES) solution in 90 mL distilled water. Adjust the pH to 7.4 using 0.5 M NaOH, then dilute to a final volume 100 mL with distilled water.
(§2) Sample Analysis: Dissolve 0.6 mg of the compound in 250 μL of deionized water separately. Add 250 μL of mouse serum or HEPES 7.4 solution to the sample, incubate at a constant temperature of 37° C., and collect samples at different time points. Pipette 20 μL of the sample to an EP tube, add 60 μL of methanol, vortex to mix thoroughly, and centrifuge at 12,000 rpm at 4° C. for 10 min. At 1 h, 2 h, 4 h, 8 h, and 12 h respectively, collect the supernatant for HPLC analysis. Inject 10 μL of sample and record the corresponding peak areas. Chromatographic conditions: Hanbang C18 column (4.6×250 mm, 5 μm); mobile phase: acetonitrile: […] ammonium formate solution=60:40; flow rate 1.0 mL/min; detection wavelength 210 nm; column temperature 30° C.

Data set [3] is described as follows: Conversion (release) of prodrug salts to parent compound in mouse plasma. Type of data set: in vitro ADME. The settings on record: mouse, plasma, 37 °C, read-out: Release rate (conversion to Compound 1). How it is done:
as §1
Plasma Preparation: Collect mouse plasma into an EP tube pre-loaded with sodium heparin, centrifuge at 8000 rpm for 10 minutes at 4° C., and then collect the supernatant.
as §2

Consider `C[C@@]12CC[C@@H]3[C@H](OC(=O)[C@H]3CN3CCCC3)[C@@H]3[C@]1(CC[C@@]3(C)O)C2` [Compound 3], for which the activation at 1 µM with T cells / MDSCs was in the range of 20 to 40%. In data set [1], this compound registered a Water-solubility of 1.305 mg/mL.
The corresponding values for `C[C@@]12CC[C@@H]3[C@H](OC(=O)[C@H]3CN3CCCCC3)[C@@H]3[C@]1(CC[C@@]3(C)O)C2` [Compound 5] are 20 to 40% and 0.730 mg/mL.
On the same counts, the results for `C[C@@]12CC[C@@H]3[C@H](OC(=O)[C@H]3CN3CCOCC3)[C@@H]3[C@]1(CC[C@@]3(C)O)C2` [Compound 6] are 0 to 20% and 0.668 mg/mL.
As to `CCOC(=O)[C@@H]1CCCN1C[C@@H]1C(=O)O[C@H]2[C@H]1CC[C@@]1(C)C[C@]13CC[C@@](C)(O)[C@H]23` [Compound 23], in data set [2], the degraded at 1 h was determined as 6.2%, the degraded at 2 h is 14.3%, the degraded at 4 h stood at 26.8% and the degraded at 8 h worked out at 41.1%. In addition, the degraded at 12 h in data set [2] is 52.8%. The “T-cell proliferation rate (%)” value in the data set on T cells / MDSCs (1 μM, MDSCs treated 12 hours, co-culture of MDSCs and T cells, compared to the control group) is “+ (T-cell proliferation rate within the 0-20% range compared to the control group)”. In addition, the Water-solubility in data set [1] came out at 362.3 mg/mL. Further, in data set [3], the metabolised at 1 h stood at 7.2%, the metabolised at 2 h amounted to 14.3%, the metabolised at 4 h is 26.8% and the metabolised at 8 h worked out at 45.1%. Also, the metabolised at 12 h in data set [3] was determined as 52.8%.
Regarding `CCCCN(CCCC)C[C@@H]1C(=O)O[C@H]2[C@H]1CC[C@@]1(C)C[C@]13CC[C@@](C)(O)[C@H]23` [Compound 30], in data set [2], the degraded at 1 h was 6.6%, the degraded at 2 h came out at 14.6%, the degraded at 4 h was determined as 23.8% and the degraded at 8 h worked out at 40.8%. In data set [2], the degraded at 12 h came to 49.8%. For the same compound, the Water-solubility in data set [1] was found to be 228.4 mg/mL. Also, in data set [3], the metabolised at 1 h was determined as 6.6%, the metabolised at 2 h is 13.6%, the metabolised at 4 h amounted to 23.8% and the metabolised at 8 h was 40.8%. The metabolised at 12 h in data set [3] was determined as 48.8%.
Regarding `CC(C)N(C[C@@H]1C(=O)O[C@H]2[C@H]1CC[C@@]1(C)C[C@]13CC[C@@](C)(O)[C@H]23)C(C)C` [Compound 31], in data set [2], the degraded at 1 h stood at 6.7%, the degraded at 2 h amounted to 14%, the degraded at 4 h is 23% and the degraded at 8 h came out at 41.2%. Also, in data set [2], the degraded at 12 h came to 49.5%. In data set [1], this compound showed a Water-solubility of 254.6 mg/mL. Besides, in data set [3], the metabolised at 1 h came out at 6.5%, the metabolised at 2 h amounted to 13.9%, the metabolised at 4 h came out at 24.4% and the metabolised at 8 h came to 40.2%. For the same compound, in data set [3], the metabolised at 12 h is 48.5%.
Consider `C[C@@]12CC[C@@H]3[C@H](OC(=O)[C@H]3CN3CC4CCCC4C3)[C@@H]3[C@]1(CC[C@@]3(C)O)C2` (stereo partly drawn) [Compound 32], for which, in data set [2], the degraded at 1 h is 6.9%, the degraded at 2 h stood at 15.4%, the degraded at 4 h turned out to be 26.2% and the degraded at 8 h stood at 42.2%. For the same compound, the degraded at 12 h in data set [2] came to 51.2%. In data set [1], this compound had a Water-solubility of 100.8 mg/mL. In data set [3], the metabolised at 1 h was 6.3%, the metabolised at 2 h was determined as 14.4%, the metabolised at 4 h stood at 25.2% and the metabolised at 8 h is 43.2%. The metabolised at 12 h in data set [3] was 51.4%.
On to `C[C@@]12CC[C@@H]3[C@H](OC(=O)[C@H]3CN3CCC3)[C@@H]3[C@]1(CC[C@@]3(C)O)C2` [Compound 33], for which, in data set [2], the degraded at 1 h was 6.9%, the degraded at 2 h stood at 15.8%, the degraded at 4 h is 26% and the degraded at 8 h came out at 41.8%. In addition, in data set [2], the degraded at 12 h came to 51.1%. For the same compound, the Water-solubility in data set [1] worked out at 145.5 mg/mL. In addition, in data set [3], the metabolised at 1 h came out at 6.9%, the metabolised at 2 h turned out to be 14.8%, the metabolised at 4 h is 26% and the metabolised at 8 h stood at 42.8%. The metabolised at 12 h in data set [3] was 50.7%.
`C[C@@]12CC[C@@H]3[C@H](OC(=O)[C@H]3CN3CCC4(CCCC4)CC3)[C@@H]3[C@]1(CC[C@@]3(C)O)C2` [Compound 34]: in data set [2], the degraded at 1 h worked out at 7%, the degraded at 2 h was 16.2%, the degraded at 4 h was 27.6% and the degraded at 8 h was 43.6%. In data set [2], the degraded at 12 h was found to be 54.4%. For the same compound, the Water-solubility in data set [1] is 128.6 mg/mL. In addition, in data set [3], the metabolised at 1 h is 7.8%, the metabolised at 2 h worked out at 17.2%, the metabolised at 4 h is 28.6% and the metabolised at 8 h is 47.6%. For the same compound, the metabolised at 12 h in data set [3] stood at 58.8%.
In the case of `C[C@@]12CC[C@@H]3[C@H](OC(=O)[C@H]3CN3CCC(N4CCCCC4)CC3)[C@@H]3[C@]1(CC[C@@]3(C)O)C2` [Compound 35], in data set [2], the degraded at 1 h worked out at 6.8%, the degraded at 2 h is 14.6%, the degraded at 4 h was 26.4% and the degraded at 8 h came to 43.8%. Besides, the degraded at 12 h in data set [2] came to 52.5%. Moreover, the Water-solubility in data set [1] is 212.6 mg/mL. For the same compound, in data set [3], the metabolised at 1 h was 6.8%, the metabolised at 2 h was determined as 13.6%, the metabolised at 4 h stood at 26.4% and the metabolised at 8 h worked out at 44.8%. Further, the metabolised at 12 h in data set [3] turned out to be 52.5%.
As to `C[C@@]12CC[C@@H]3[C@H](OC(=O)[C@H]3CN3CCC(N4CCOCC4)CC3)[C@@H]3[C@]1(CC[C@@]3(C)O)C2` [Compound 36], in data set [2], the degraded at 1 h amounted to 6.9%, the degraded at 2 h was 14.8%, the degraded at 4 h came to 26% and the degraded at 8 h turned out to be 43.6%. For the same compound, the degraded at 12 h in data set [2] was determined as 52.4%. The compound also had a Water-solubility in data set [1] of 234.6 mg/mL. In addition, in data set [3], the metabolised at 1 h turned out to be 6.6%, the metabolised at 2 h came to 14.8%, the metabolised at 4 h was 26% and the metabolised at 8 h was 43.6%. The metabolised at 12 h in data set [3] was determined as 52.1%.
As for `C[C@@]12CC[C@@H]3[C@H](OC(=O)[C@H]3CN3CCC4(CC3)CC4)[C@@H]3[C@]1(CC[C@@]3(C)O)C2` [Compound 37], in data set [2], the degraded at 1 h was found to be 7.2%, the degraded at 2 h stood at 16.8%, the degraded at 4 h was 28.3% and the degraded at 8 h worked out at 44.1%. Besides, the degraded at 12 h in data set [2] stood at 65.8%. In data set [1], this compound showed a Water-solubility of 357.5 mg/mL. In data set [3], the metabolised at 1 h came to 8.2%, the metabolised at 2 h came to 17.8%, the metabolised at 4 h was 29.3% and the metabolised at 8 h came to 48.1%. For the same compound, the metabolised at 12 h in data set [3] was determined as 67.8%.
As for `C[C@@]12CC[C@@H]3[C@H](OC(=O)[C@H]3CN3CCCCCCC3)[C@@H]3[C@]1(CC[C@@]3(C)O)C2` [Compound 38], in data set [2], the degraded at 1 h was found to be 6.9%, the degraded at 2 h is 14.8%, the degraded at 4 h was 25.4% and the degraded at 8 h stood at 41.4%. Further, in data set [2], the degraded at 12 h was 50.7%. The compound also had a Water-solubility in data set [1] of 250.9 mg/mL. Besides, in data set [3], the metabolised at 1 h came to 6.1%, the metabolised at 2 h came out at 14.5%, the metabolised at 4 h worked out at 25.4% and the metabolised at 8 h stood at 41.4%. Moreover, in data set [3], the metabolised at 12 h turned out to be 49.7%.
